# Data taken from patent US20240218017A1, “PEPTIDE AMPHIPHILES WITH MODIFIED DEGRADING SEQUENCES AND METHODS OF USE THEREOF” (UAB RESEARCH FOUNDATION, priority 2022, published 2024).
# Peptide text beside a SMILES is read from it. * marks the point of attachment. Palmitoyl = CCCCCCCCCCCCCCCC(=O)*
# Assay: Solubility in DI water at 1 wt % (visual observation, FIG. 5)
# Assay type: physicochemical
# Description: PA-C16-GTAGLKKK-YIGSR (SEQ ID NO: 19) and PA-C16-GTAKKKKK-YIGSR (SEQ ID NO:20) were dissolved in DI water at 1 wt %. […] Higher percent transmittance indicates less opaqueness of solution, which corresponds with increased solubility of the peptide amphiphiles in DI water. Thus, PA-C16-GTAGLKKK-YIGSR (SEQ ID NO: 19) and PA-C16-GTAKKKKK-YIGSR (SEQ ID NO:20) are more soluble than unmodified PA-C16-GTAGLIGQ-YIGSR (SEQ ID NO:21).
row,SMILES,solubility
1,"CCCCCCCCCCCCCCCC(=O)NCC(=O)N[C@H](C(=O)N[C@@H](C)C(=O)NCC(=O)N[C@@H](CC(C)C)C(=O)N[C@H](C(=O)NCC(=O)N[C@@H](CCC(N)=O)C(=O)N[C@@H](Cc1ccc(O)cc1)C(=O)N[C@H](C(=O)NCC(=O)N[C@@H](CO)C(=O)N[C@@H](CCCNC(=N)N)C(=O)O)[C@@H](C)CC)[C@@H](C)CC)[C@@H](C)O [PA-C16-GTAGLIGQ-YIGSR, PA-C16-GTAGLIGQ-YIGSR (SEQ ID NO:21), reference compound] (Palmitoyl-GTAGLIGQYIGSR-OH; N-terminus and C-terminus assumed)",insoluble and forms precipitates
2,"CCCCCCCCCCCCCCCC(=O)NCC(=O)N[C@H](C(=O)N[C@@H](C)C(=O)NCC(=O)N[C@@H](CC(C)C)C(=O)N[C@@H](CCCCN)C(=O)N[C@@H](CCCCN)C(=O)N[C@@H](CCCCN)C(=O)N[C@@H](Cc1ccc(O)cc1)C(=O)N[C@H](C(=O)NCC(=O)N[C@@H](CO)C(=O)N[C@@H](CCCNC(=N)N)C(=O)O)[C@@H](C)CC)[C@@H](C)O [PA-C16-GTAGLKKK-YIGSR, PA-C16-GTAGLKKK-YIGSR (SEQ ID NO:19)] (Palmitoyl-GTAGLKKKYIGSR-OH; N-terminus and C-terminus assumed)","form homogenous, transparent solutions"
3,"CCCCCCCCCCCCCCCC(=O)NCC(=O)N[C@H](C(=O)N[C@@H](C)C(=O)N[C@@H](CCCCN)C(=O)N[C@@H](CCCCN)C(=O)N[C@@H](CCCCN)C(=O)N[C@@H](CCCCN)C(=O)N[C@@H](CCCCN)C(=O)N[C@@H](Cc1ccc(O)cc1)C(=O)N[C@H](C(=O)NCC(=O)N[C@@H](CO)C(=O)N[C@@H](CCCNC(=N)N)C(=O)O)[C@@H](C)CC)[C@@H](C)O [PA-C16-GTAKKKKK-YIGSR, PA-C16-GTAKKKKK-YIGSR (SEQ ID NO:20)] (Palmitoyl-GTAKKKKKYIGSR-OH; N-terminus and C-terminus assumed)","form homogenous, transparent solutions"
